From patent publication US10422787B2, “System and method for single molecule detection” (ARIZONA BOARD OF REGENTS on behalf of ARIZONA STATE …, priority 2015, dated 2019)

Legend:
cyclic RGD peptide [1] = experiment: Fixed-gap (5 nm) MEMED tunnel chip functionalized with cyclic RGD peptide; assay type: binding; parameters: signal in fixed-gap device: dose or concentration left out as unconfirmed
Protocol: A fixed gap tunneling device has significant advantages over STM measurements. […] It is fabricated much as described in our earlier paper. The basic fabrication of the layered device (10 nm Pd, 4 to 5 nm Al2O3 followed by 10 nm Pd, resting on top of a 25 nm SiN substrate and passivated on top with SiO2) was carried out by Norcada Inc. (Edmonton, Alberta). Our original devices had large (micron-scale) openings, but it was desired to restrict the region over which proteins could be captured to dimensions small enough that the capture of multiple molecules in the tunnel junction was unlikely (illustrated schematically by the capture of a single integrin in FIG. 16A). RIE was used to thin the underlying SiN substrate to ˜15 nm, followed by e-beam lithography using a hard mask and further RIE etching (FIG. 16C and Methods). In this way, slits were produced that were 50 to 100 nm across and up to 400 nm long, though the active area was defined by the top electrode widths of about 100 nm (FIG. 16C). After cleaning and functionalization (Methods) the device was immersed in 1 mM phosphate buffer (pH=7.4) with the electrode potentials controlled with respect to an Ag/AgCl electrode coupled via a salt bridge (SB in FIG. 16A).
Our devices often suffer from failure of the passivation layer (SiO2 in FIG. 16B) so that, even in the dilute electrolyte, leakage currents can be substantial (e.g., a few nA, FIG. 16D). […] Thus, these are currents that pass from exposed regions of the top electrodes via the electrolyte, and they are not a consequence of tunneling or electrochemical leakage across the tunnel gap itself. These leakage currents (FIG. 16D) show no distinctive features beyond the shot- and system electronic noise (distributed as a Gaussian, FIG. 16E). When […] α1β4 protein was added (FIG. 16F) the background current falls a little, presumably because of passivation of the exposed electrodes by non-specific adsorption of this protein. Once again, the signal is featureless, displaying the same intrinsic noise as observed in buffer alone (FIG. 16G). (In contrast to the STM measurements, no features have been observed in the fixed-gap devices in any measurement taken in the presence of α1β4.) However, once αVβ3 protein is added to the same device, dramatic jumps occur in the current (FIG. 16H). The background leakage current is reduced by about 20% on addition of the protein, consistent with the passivation effect seen in the macroscopic electrochemical measurements (FIGS. 14B, 14C). The signal jumps up from the baseline to two well defined levels (FIG. 16I) in this case. The states are separated by nearly 0.5 nA, corresponding to ˜1.5 nS conductance (Vt=0.3V). […]

cyclic RGD peptide [2] = experiment: Tunnel junction device functionalized with cyclic RGD peptide, gap 3.5 to 4 nm, current vs time; assay type: binding; details: for signal on flowing solution over junction: X=0.1 μm junction, 10 pM α4β1 for several minutes, then 10 fM αVβ3
Excerpt: FIG. 7 illustrates a cross-sectional view of a tunnel junction edge (i.e., the edge of an opening) of the device according to some embodiments of the present disclosure which includes a first metal electrode 71 (e.g., palladium, gold and/or platinum) onto which is deposited a layer of an insulating dielectric such as alumina 72 (for example). A second metal electrode 73 is then deposited, typically using one of the metals used for the first electrode. In some embodiments (not shown), the first electrode 71 and the second electrode 73 A cut is then made in the structure to expose the edge of these layers (fabrication of this type of device is described in detail in co-pending, published WO2015/161119, and also in Pang, Ashcroft et al. 2014) to form the opening/nanopore 78, shown here as a plane adjacent to the electrodes 71, 73. Accordingly, the first electrode 71 and the second electrode 73 can have an opening formed therethrough such as, for example, a nanopore. Said another way, the first electrode 71 and the second electrode 73 can be said to be arranged within or adjacent to an opening, or have a nanopore formed therethrough.
Specifically, for example, the insulating layer 72 is deposited with a thickness d that is chosen to be greater than the longest linear dimension of the recognition molecules 74 (L1, referred to as its effective length). However, according to some embodiments, it is chosen to be less than the combined overall length of the largest dimension of a target molecule 75 (L2, also referred to as its effective length) bound to the recognition molecule 74 (L1+L2). In the case of the integrin-RGD pair (FIGS. 3 and 4) the RGD molecule is about 1 nm at its longest, while the integrin is 9 nm, for a total of about 10 nm. […] However, a large particle that fluctuates into a highly conductive state could be used to mediate current flow (Vattay, Salahub et al. 2015). In some embodiments, the gap need only be made substantially larger than twice the largest dimension of the recognition molecules (i.e., >2L1). Thus, for example, if a recognition molecule is 1 nm at its longest dimension, then the gap is configured to be greater than 2 nm, preferably by about 10%, to accommodate variations in the junction geometry (larger than 2.2 nm in this example). In some embodiments, a gap size can be from the noted minimum up to the size of one recognition molecule plus the size of the target protein. For example, if the largest dimension of the protein is 9 nm, then the gap in this case can be as big 9 nm plus the size of one of the recognition molecules (1 nm in this example), thus, a gap of 10 nm.
However, when the junctions are exposed to the target protein (αvβ3 integrin) signals appear immediately. […] A clear signal is immediately generated which includes two (2) features as marked: a background current (of about 0.5 nA in this case) and noise spikes of 0.5 to 1 nA superimposed on top.

Substance	signal in fixed-gap device (cyclic RGD peptide [1]; protein added)	background current (cyclic RGD peptide [2]; 10 pM and 100 pM solutions)	signal on flowing solution over junction (cyclic RGD peptide [2])	signal in undiluted Serasub (protein-free serum substitute) (cyclic RGD peptide [1]; 0.1 nM, tunneling bias 200 mV) [LS signals were observed]	conductance of current jump (cyclic RGD peptide [1]; Vt=0.3V, 5 nm gap) [nS]	separation of current states (current jumps) (cyclic RGD peptide [1]; Vt=0.3V, 5 nm gap) [nA]	background current (cyclic RGD peptide [2]; 1 pM in 1 mM phosphate buffer pH 7.0)	change of background current (cyclic RGD peptide [2]; on increasing concentration to 10 pM)
α4β1: homologous, weakly-binding integrin protein used as a control	featureless	no background current	no signal being produced					
αvβ3: ~200 kD αVβ3 extracelluar domain of human integrin, target protein bound by cyclic RGD peptide			a large signal appeared after a few minutes	2	~1.5	~0.5	about 0.5 nA	increases by nearly an order of magnitude
